Results as given in publication PMC10713593, “Staphylococcus aureus functional amyloids catalyze degradation of β-lactam antibiotics” (Nature Communications, 2023).
Several values for one entry are separate records, joined by “and”; a condition that tells them apart may be missing. Equal entries are not always repeated. Where no end group is shown, it is not given here.

What was measured:
[1] = not given; remark: listed apart in the source
[2] = Nitrocefin hydrolysis kinetics (absorbance of degraded nitrocefin at 480 nm; initial rates V0, Michaelis-Menten fit); type: biochemical; set-up: Initial nitrocefin-degradation reaction rate, V0: unit not given here; settings: for initial rate of nitrocefin degradation reaction (V0): peptide 170 µM, initial nitrocefin 107 µM, first 15 min (Fig. 3f); for Initial nitrocefin-degradation reaction rate, V0: Hepes pH 7.4, average of the six runs
Protocol: Nitrocefin, a β-lactam widely used as a surrogate substrate of Penicillin in β-lactamase activity assay, was used as a substrate. NC degradation was monitored for 2 h. Nitrocefin stock solution was dissolved in acetonitrile (20 mM) and then diluted with Hepes buffer (50 mM, pH 7.4) to nitrocefin concentration of 360 µM (further dilutions to lower concentrations were made with the 360 µM NC stock). All nitrocefin samples were kept on ice in cold conditions and any further dilution or mixing was performed in ice-cold conditions to avoid self-hydrolysis background reaction. […] Immediately after mixing the samples, the plate was transferred to 20̊ °C pre-cooled plate reader (Multiskan GO, Thermo Scientific, Waltham, MA) and shaken slowly for 10 s. Then, the absorbance of degraded nitrocefin was measured for 2 h at interval of 20 s at λ = 480 nm. Initial production rates (V0) were calculated by slope of the initial linear range of degraded-nitrocefin production at the first 15 min. The reported results are and average of at least five separate measurements (the exact number of repeats, N, is reported next to the values). Each experiment also included blank samples of nitrocefin substrate diluted with buffer instead of PSMα. […] The initial rate calculations were performed while also subtracting the self-degradation of the substrate, to ensure that this product absorbance is a result of PSMα presence.
The initial rates of degraded-nitrocefin production were calculated from the slopes of the first 15 min of measurement as reported above. The initial rates (V0) were fitted using non-linear regression applied with the solver function in excel, either to Michalis–Menten equation V=Vmax.[S]/(KM+S) Where Vmax. Stands for maximal reaction rate, KM stands for Michalis–Menten constant, [S] stands for the substrate molar concentration. Each initial rate value was presented as average ± SEM. The kinetic parameters were calculated by fitting the data to MM model using non-linear regression, and the confidence intervals for each parameter were calculated accordingly.

[3] = tested on: O=C(Cc1cccs1)N[C@@H]1C(=O)N2C(C(=O)O)=C(/C=C/c3ccc([N+](=O)[O-])cc3[N+](=O)[O-])CS[C@H]12; assay: Source-data fits for PSMα variants (170 µM): initial rates of nitrocefin hydrolysis (up to 240 µM) by absorbance at 480 nm in 50 mM Hepes pH 7.4 at 20 °C.; type: biochemical
Protocol: (§1) Nitrocefin, a β-lactam widely used as a surrogate substrate of Penicillin in β-lactamase activity assay, was used as a substrate. NC degradation was monitored for 2 h. Nitrocefin stock solution was dissolved in acetonitrile (20 mM) and then diluted with Hepes buffer (50 mM, pH 7.4) to nitrocefin concentration of 360 µM (further dilutions to lower concentrations were made with the 360 µM NC stock). All nitrocefin samples were kept on ice in cold conditions and any further dilution or mixing was performed in ice-cold conditions to avoid self-hydrolysis background reaction. 120 µL of the pre-cooled nitrocefin solutions were mixed inside precooled clear 96-well plate (Greiner F-bottom) with 60 µL of pre-incubated PSMα solution (510 µM PSMα, incubated in DIW and later buffered in Hepes 50 mM, pH 7.4). Immediately after mixing the samples, the plate was transferred to 20̊ °C pre-cooled plate reader (Multiskan GO, Thermo Scientific, Waltham, MA) and shaken slowly for 10 s. Then, the absorbance of degraded nitrocefin was measured for 2 h at interval of 20 s at λ = 480 nm. Initial production rates (V0) were calculated by slope of the initial linear range of degraded-nitrocefin production at the first 15 min. The reported results are and average of at least five separate measurements (the exact number of repeats, N, is reported next to the values). Each experiment also included blank samples of nitrocefin substrate diluted with buffer instead of PSMα. All presented results include subtraction of buffer control. The initial rate calculations were performed while also subtracting the self-degradation of the substrate, to ensure that this product absorbance is a result of PSMα presence.
(§2) The initial rates of degraded-nitrocefin production were calculated from the slopes of the first 15 min of measurement as reported above. […] The kinetic parameters were calculated by fitting the data to MM model using non-linear regression, and the confidence intervals for each parameter were calculated accordingly.

[4] = tested on: O=C(Cc1cccs1)N[C@@H]1C(=O)N2C(C(=O)O)=C(/C=C/c3ccc([N+](=O)[O-])cc3[N+](=O)[O-])CS[C@H]12; assay: Initial rates of nitrocefin hydrolysis by pre-assembled PSMα peptides (170 µM) followed by absorbance at 480 nm in 50 mM Hepes pH 7.4 at 20 °C, non-linear fit to the Michaelis-Menten equation.; type: biochemical
Protocol: Measurements of V0 as function of initial substrate (nitrocefin) concentrations (keeping the PSMα concentration constant at 170 µM, assuring amyloid formation, e.g., above the 30 μM threshold) are depicted in Fig. 2c. […] Table S1 summarizes the pertinent enzymatic parameters extracted from the initial reaction rate data in Fig. 2c using non-linear regression fit to a MM reaction model. Figure 2d presents the catalytic efficiencies, calculated for each peptide by dividing the turnover rate by the MM-constant (Kcat/KM), considered a measure for both substrate binding affinity and conversion kinetics into product.
as §1
as §2, with “accordingly. […]” for “accordingly.”
Values derive from the fitting of the initial rates to MM model and are presented as calculated-value ± confidence interval. […]

[5] = type: physicochemical; settings: PSMα3 preformed fibrils 400 µM, titration pH 3 to 10 with NaOH 0.05M (Fig. S10)
[6] = type: biochemical; settings: Fap 20 µM, nitrocefin 100 µM, A480, ten hours (Fig. S3)
Protocol: Figure S3. Cross-β bacterial amyloids of Pseudomonas Aeruginosa. Fap B and Fap C were incubated for seven days at 37 °C for fibrillation. Then, upon appearance of typical turbidity the samples were diluted and nitrocefin was added to the samples, creating solutions of 20 µM Fap and nitrocefin in concentration of 100 µM. The absorbance of the nitrocefin was recorded in microplate reader at 480 nm for ten hours, resulting low absorbance relatively to the PSMα at close mass concentration (w/v, 300 µM). This comparison was necessary due to the major differences in sequence length of the Fap proteins and the short PSMα3 peptide. The results are shown as absorbance rather than product concentration due to the slight turbidity of the Fap samples.
(1 picture or pasted object on this page, not shown here)

[7] = AVG of runs, fit of V0 vs NC concentration
[8] = Michaelis-Menten fit of nitrocefin titration, single run, block r246-r259
[9] = Michaelis-Menten fit of nitrocefin titration, single run, block r262-r275
[10] = Michaelis-Menten fit of nitrocefin titration, single run, block r278-r291
[11] = Michaelis-Menten fit of nitrocefin titration, single run, block starting r293

KNKMFGVALFNFGFKEDLLFLK [α3-scrambled]
ATR-FTIR amide-I shoulder: 1680 cm⁻¹
ATR-FTIR amide-I peak/maximum [1]: 1630 cm⁻¹
Kcat [2, 7]: 3362023 s⁻¹
Vmax [2, 7]: 31897124362167 µM/h
E [1/Ms] (catalytic efficiency) ([2]; AVG of runs, fit of V0 vs nitrocefin (NC) concentration): 0.653 M⁻¹ s⁻¹
Kcat [2, 8]: 406977 s⁻¹
Vmax [2, 8]: 249070136309 µM/h
Kcat [2, 9]: 0.0002595 s⁻¹
Km [2, 9]: 438 µM
Vmax [2, 9]: 158.82 µM/h
Kcat [2, 10]: 0.0002595 s⁻¹
Km [2, 10]: 438 µM
Vmax [2, 10]: 158.82 µM/h
Kcat [2, 11]: 3.556e-05 s⁻¹
Km [2, 11]: 37.6 µM
Vmax [2, 11]: 21.76 µM/h
initial rate of nitrocefin degradation reaction (V0) ([2]; Hepes 50 mM pH 7.4, 20 °C): 21 µM/h

a3-cationic (Staphylococcus aureus subsp. aureus NCTC 8325; D13N/E2Q)
Km [3]: 772.188 µM
Vmax [3]: 8.13 µM/min
kcat [3]: 0.00116 s⁻¹

PSMα2 (Staphylococcus aureus subsp. aureus MW2)
Km [4]: 230 µM

CSCC[C@H](N)C(=O)N[C@@H](CCC(=O)O)C(=O)N[C@@H](Cc1ccccc1)C(=O)N[C@H](C(=O)N[C@@H](C)C(=O)N[C@@H](CCCCN)C(=O)N[C@@H](CC(C)C)C(=O)N[C@@H](Cc1ccccc1)C(=O)N[C@@H](CCCCN)C(=O)N[C@H](Cc1ccccc1)C(=O)N[C@H](Cc1ccccc1)C(=O)N[C@@H](CCCCN)C(=O)N[C@@H](CC(=O)O)C(=O)N[C@@H](CC(C)C)C(=O)N[C@@H](CC(C)C)C(=O)NCC(=O)N[C@@H](CCCCN)C(=O)N[C@@H](Cc1ccccc1)C(=O)N[C@@H](CC(C)C)C(=O)NCC(=O)N[C@@H](CC(N)=O)C(=O)N[C@@H](CC(N)=O)C(=O)O)C(C)C [α3-(d)FF]
ATR-FTIR amide-I shoulder: 1630 cm⁻¹
ATR-FTIR amide-I peak/maximum [1]: 1640 cm⁻¹
initial rate of nitrocefin degradation reaction (V0) ([2]; Hepes 50 mM pH 7.4, 20 °C): 30 µM/h

PSMα3 (Staphylococcus aureus subsp. aureus NCTC 8325)
Km [4]: 80 µM

PSMα1 (Staphylococcus aureus subsp. aureus NCTC 8325)
Km [4]: 200 µM

PSMα4 (Staphylococcus aureus subsp. aureus MW2)
Km [4]: 200 µM

CSCC[C@H](N)C(=O)N[C@@H](CCC(=O)O)C(=O)N[C@@H](Cc1ccccc1)C(=O)N[C@H](C(=O)N[C@@H](C)C(=O)N[C@@H](CCCCN)C(=O)N[C@@H](CC(C)C)C(=O)N[C@@H](Cc1ccccc1)C(=O)N[C@@H](CCCCN)C(=O)N[C@@H](Cc1ccccc1)C(=O)N[C@@H](Cc1ccccc1)C(=O)N[C@@H](CCCCN)C(=O)N[C@@H](CC(=O)O)C(=O)N[C@@H](CC(C)C)C(=O)N[C@@H](CC(C)C)C(=O)NCC(=O)N[C@@H](CCCCN)C(=O)N[C@@H](Cc1ccccc1)C(=O)N[C@@H](CC(C)C)C(=O)NCC(=O)N[C@@H](CC(N)=O)C(=O)N[C@@H](CC(N)=O)C(=O)O)C(C)C [PSMα3]
pKa of the amines (first value) [5]: 7.8
pKa of the amines (second value) [5]: 8.1
ATR-FTIR amide-I peak/maximum [1]: 1660 cm⁻¹ and 1650 cm⁻¹
Initial nitrocefin-degradation reaction rate, V0 ([2]; PSMα 4.01424 uM, nitrocefin 60 µM): 0.4242
Initial nitrocefin-degradation reaction rate, V0 ([2]; PSMα 6.02136 uM, nitrocefin 60 µM): -0.2476
Initial nitrocefin-degradation reaction rate, V0 ([2]; PSMα 9.03205 uM, nitrocefin 60 µM): 0.6132
Initial nitrocefin-degradation reaction rate, V0 ([2]; PSMα 13.5481 uM, nitrocefin 60 µM): 1.028
Initial nitrocefin-degradation reaction rate, V0 ([2]; PSMα 20.3221 uM, nitrocefin 60 µM): 0.7515
Initial nitrocefin-degradation reaction rate, V0 ([2]; PSMα 30.4832 uM, nitrocefin 60 µM): -1.835
Initial nitrocefin-degradation reaction rate, V0 ([2]; PSMα 45.7247 uM, nitrocefin 60 µM): 5.684
Initial nitrocefin-degradation reaction rate, V0 ([2]; PSMα 68.5871 uM, nitrocefin 60 µM): 8.525
Initial nitrocefin-degradation reaction rate, V0 ([2]; PSMα 102.881 uM, nitrocefin 60 µM): 29.1642
Initial nitrocefin-degradation reaction rate, V0 ([2]; PSMα 154.321 uM, nitrocefin 60 µM): 32.1116
Initial nitrocefin-degradation reaction rate, V0 ([2]; PSMα 231.481 uM, nitrocefin 60 µM): 46.236
Initial nitrocefin-degradation reaction rate, V0 ([2]; PSMα 347.222 uM, nitrocefin 60 µM): 69.7594
nitrocefin degradation yield (turnover) ([2]; nitrocefin 60 µM, PSMα assemblies 350 µM, Hepes 50 mM pH 7.4, 20 °C, A480, monitored 2 h (Fig. 2a)): 75%
initial rate of nitrocefin degradation reaction (V0) ([2]; Hepes 50 mM pH 7.4, 20 °C): around 60 µM/h
time to degrade the entire nitrocefin reservoir ([2]; peptide 170 μM, nitrocefin 107 µM, Hepes pH 7.4 (Fig. 3e)): ~ 40 min

MQFVAKLFKFFKNLLGKFLGNN-NH2 [α3-cationic]
ATR-FTIR amide-I peak/maximum [1]: 1660 cm⁻¹
initial rate of nitrocefin degradation reaction (V0) ([2]; Hepes 50 mM pH 7.4, 20 °C): around 60 µM/h

B1: FapB: cross-β Pseudomonas Aeruginosa-originated bacterial amyloid (protein, UniProt Q9I2E9 20-189, looked up)
Functional amyloid subunit …: DPLASRNRASIDDSGTYRGNFALNQAAGDAQQQSNVRVVAVGSAALVGSDQRQHLQLDASQPIAASASISGAALRGSGILGVNQGAGLGNQQINAFRLSLSNGPESLDDSVLAQSVALTKVSGSATPVPGGRSVSTDDRAFAGSSGVVQVNQSAGVGNQSMNTLSVRVME
nitrocefin degradation by cross-β bacterial amyloids [6]: minor nitrocefin degradation

B2: FapC: cross-β Pseudomonas Aeruginosa-originated bacterial amyloid (protein, UniProt Q9I2F0 25-340, looked up)
Functional amyloid subunit …: GNEGGWHPPKPNPQSNNKGGATALVVDTQQNYNNKVSNFGTLNNASVSGSIKDASGNVGVNVAAGDNNQQANAAALASADASFVFGTATASTSVLQSGYGNTLNNYSNPNTASLSNSANNVSGNLGVNVAAGNFNQQKNDLAAAVSNGQYSTAGSAASQTSTGNTTVNSANYAYGGTYVSLKLNADGSYKGTSDQIGDVYLDTWEGQTHPGGSNTGHIDVDSQAQGAKDLNHDGGAFAFKEKGDVDLKGTVSGFIPAIVGFKTPVTNNASLSNSLQNVSGNVGVNIAAGGGNQQSNSLSIAAGCSSCPAGGESLGF
nitrocefin degradation by cross-β bacterial amyloids [6]: minor nitrocefin degradation
